A short description of series [1]: Stability of I-131 MIBG vials on storage: percent of iodine remaining bound. The series is classed as physicochemical. The protocol:
In order to establish the advantages of the novel process and resulting composition, a series of tests were run utilizing meta iodo benzyl guanidine (MIBG) in which the radionuclide I-131 was the iodine in the MlBG.
The MIBG was prepared as follows: eight vials were prepared of MIBG in solution with a radioactive concentration of MIBG of 1 mCi per vial. The MIBG in six of those vials were then stabilized and lyophilized according to the process described in this invention. One vial was frozen and maintained at a temperature of −10 degrees, and another vial was simply refrigerated at approximately 5 degrees.
Six vials were prepared according to the process in this invention in order to enable several to be reconstituted from the lyophilized state and their activity tallied.
The radioactive concentration of MIBG per vial was 1 mCi per vial.
One each of the vials was reconstituted after 24, 48, 72 and 168 hours respectively.

The nature of series [2]: Stability of I-131 Hippuran vials on storage: percent remaining bound. Format: physicochemical. How it is done: As another example, I-131 Hippuran was prepared. The I-131 Hippuran was prepared as follows: 9 vials were prepared of I-131 Hippuran in solution with a radioactive concentration of MIBG of 1 mCi per vial. Each vial had 4 cc. The I-131 in seven of those vials was then stabilized and lyophilized according to the process described in this invention. One vial was frozen and maintained at a temperature of −10 degrees, and another vial was maintained room temperature. Room temperature was selected because Hippuran is thought to be stable at room temperature even in conjunction with a radioisotope. […]

[3] abbreviates: Lyophilized and stabilized per invention, stored at room temp., 0 hours, 1 mCi per vial.

Molecules are shown by their SMILES.

For the compound `N=C(N)NCc1cccc([131I])c1` [MIBG, meta iodo benzyl guanidine], the “percent of iodine remaining bound to the MIBG” value stood at 96.3% in series [1] (Frozen −10°, 0 hours); 94% in series [1] (Frozen −10°, 24 hours); 91% in series [1] (Frozen −10°, 48 hours); 84% in series [1] (Frozen −10°, 72 hours); 72% in series [1] (Frozen −10°, 168 hours (1 wk.)); 96.3% in series [1] (setting [3]). Besides, the “percent of iodine remaining bound to the MIBG” value in series [1] (Lyophilized and stabilized per invention, stored at room temp., 24 hours) was 97%; in series [1] (Lyophilized and stabilized per invention, stored at room temp., 48 hours) it was 96.6%; in series [1] (Lyophilized and stabilized per invention, stored at room temp., 72 hours), 96.2%; in series [1] (Lyophilized and stabilized per invention, stored at room temp., 168 hours (1 wk.)), 95.9%; in series [1] (Refrigerated ˜+5°, 0 hours), 96.3%; in series [1] (Refrigerated ˜+5°, 24 hours), 92%. Besides, the “percent of iodine remaining bound to the MIBG” value amounted to 85% in series [1] (Refrigerated ˜+5°, 48 hours); 77% in series [1] (Refrigerated ˜+5°, 72 hours); 55% in series [1] (Refrigerated ˜+5°, 168 hours (1 wk.)).

`O=C(O)CNC(=O)c1ccccc1[131I]` [I-131 Hippuran]: the “percent of Hippuran remaining bound to the 1-123” value in series [2] (Frozen −10°, 0 hours) was 98%; in series [2] (Frozen −10°, 24 hrs), 97.8%; in series [2] (Frozen −10°, 48 hrs), 97%; in series [2] (Frozen −10°, 72 hrs) it was 94%; in series [2] (Frozen −10°, 96 hrs) it was 92.5%; in series [2] (Frozen −10°, 120 hrs), 91. Also, the “percent of Hippuran remaining bound to the 1-123” value in series [2] (setting [3]) is 98%; in series [2] (Lyophilized and stabilized per invention, stored at room temp., 24 hrs) it was 98.4%; in series [2] (Lyophilized and stabilized per invention, stored at room temp., 48 hrs) it was 98.6%; in series [2] (Lyophilized and stabilized per invention, stored at room temp., 72 hrs), 98%; in series [2] (Lyophilized and stabilized per invention, stored at room temp., 96 hrs), 98.4%; in series [2] (Lyophilized and stabilized per invention, stored at room temp., 120 hrs), 98.5%. The “percent of Hippuran remaining bound to the 1-123” value was 98% in series [2] (Room Temp. (solution), 0 hours); 96% in series [2] (Room Temp. (solution), 24 hrs); 95% in series [2] (Room Temp. (solution), 48 hrs); 94.5% in series [2] (Room Temp. (solution), 72 hrs); 92% in series [2] (Room Temp. (solution), 96 hrs); 90% in series [2] (Room Temp. (solution), 120 hrs).

These data come from patent publication US20070189965A1, “Copper-complex isonitrile positron emission tomography (pet) imaging agent and method” (priority 2004, published 2007).
